Assay results taken from US4606908A, “Methods and compositions for plasma and organ imaging” (Washington Research Foundation, priority 1983, dated 1986).

Test system: isolated rabbit hearts
Experiment: extraction and retention of tracer in isolated perfused rabbit hearts (indicator dilution, coronary sinus outflow)
Set-up: species or system New Zealand white rabbits
Settings: isolated rabbit heart
Procedure: For isolated heart studies, after anesthesia with pentobarbital, the hearts were removed from 2 to 3 kg New Zealand white rabbits and mounted on a perfusion system in which the flow was controlled and the perfusion pressure monitored. The perfusate was (mM): Na 142, K 5.4, Mg 1.0, Ca 2.0, Cl 141, HCO3 12, PO4 0.435, glucose 11.0, and insulin 2 units/L, at 37° C. The coronary sinus flow and Thebesian flow into the right ventricle were collected via cannula placed through the pulmonary artery and a total effluent flow measured with graduated cylinder and stopwatch. Reference and test tracers were simultaneously injected as a mixed bolus into the aortic cannula, which supplied only the coronary system. Samples of the coronary sinus effluent were taken from the cannulated pulmonary artery at intervals of 1, 2, 4 or 10 seconds; higher sampling rates were used during the first part of the curves. The outflow of response was calculated as the fraction of dose emerging per unit time, h(t), at each time t:
F is the perfusate flow ml×s^-1 ;
C(t) is the concentration of tracer, cpm/ml; and
q0 is the injected dose of tracer, cpm.

CNCCCN1c2ccccc2CCc2ccc([125I])cc21 [^125 I-DMI]
retentions at 10-20 min (10-20 min): about 80% | maximal instantaneous extractions (37° C., plasma flows up to 1.5 ml/min×g): 96% | Overall retentions at 1 min (1 min, minimum value, indicator possibly impure): about 91%
